# In patent US20100119512A1, “METHODS OF DIAGNOSING, TREATING, AND PREVENTING INCREASED VASCULAR PERMEABILITY” (Joslin Diabetes Center, priority 2007, published 2010):
# B1: C1-INH: C1 inhibitor; binds covalently to the active site of FXII (protein, UniProt P05155 23-500, looked up)
# Plasma protease C1 inhibitor: NPNATSSSSQDPESLQDRGEGKVATTVISKMLFVEPILEVSSLPTTNSTTNSATKITANTTDEPTTQPTTEPTTQPTIQPTQPTTQLPTDSPTQPTTGSFCPGPVTLCSDLESHSTEAVLGDALVDFSLKLYHAFSAMKKVETNMAFSPFSIASLLTQVLLGAGENTKTNLESILSYPKDFTCVHQALKGFTTKGVTSVSQIFHSPDLAIRDTFVNASRTLYSSSPRVLSNNSDANLELINTWVAKNTNNKISRLLDSLPSDTRLVLLNAIYLSAKWKTTFDPKKTRMEPFHFKNSVIKVPMMNSKKYPVAHFIDQTLKAKVGQLQLSHNLSLVILVPQNLKHRLEDMEQALSPSVFKAIMEKLEMSKFQPTLLTLPRIKVTTSQDMLSIMEKLEFFDFSYDLNLCGLTEDPDLQVSAMQHQTVLELTETGVEAAAASAISVARTLLVFEVQQPFLFVLWDQQHKFPVFMGRVYDPRA
# How the values were obtained:
# [1] = tested on: retinal vascular permeability; conditions: rats, cited from earlier work
# [2] = tested on: prekallikrein (PK) activation by FXII; experiment: PK activation by FXII in the presence of HK, fluorogenic kallikrein substrate; type: biochemical, human; conditions: for effect on kallikrein activation in vitro: PK activation by FXII in the presence of HK
# Experimental: FIG. 2 is a line graph illustrating the effect of varying concentrations of C1-INH on PK activation by FXII in the presence of HK. Kallikrein activity was measured as cleavage of synthetic fluorogenic kallikrein substrate (0.4 mM) on a microplate reader at 37° C. at 15 minutes (means±s.e.m.; n=4).
# FIG. 3 is line graph illustrating the effect of varying concentrations of anti-PK antibody on PK activation by FXII in the presence of HK (means±s.e.m. n=5-6).
# The effects of C1-INH and anti-PK antibody on the kinetics of PK activation by factor XII (FXII) were monitored in vitro using a fluorescent kallikrein substrate. Fluorogenic kallikrein substrate (H-D-Val-Leu-Arg-AFC; Calbiochem) was used to quantify kallikrein enzymatic activity.
molecule,measurement,setting,value
"CC(=O)Nc1nnc(S(N)(=O)=O)s1 [acetazolamide, reference compound]",effect on increased retinal permeability induced by transplant of vitreous from patients with advanced diabetic retinopathy,[1],blocked
O=C(O)O [bicarbonate ion],effect on kallikrein activation in vitro,[2],Neither CA-I or bicarbonate ion affected
"CA-I: human erythrocyte CA-I (Sigma), carbonic anhydrase 1",effect of intravitreal injection on retinal vascular permeability,[1]; intravitreal,increased
same,effect on kallikrein activation in vitro,[2],Neither CA-I or bicarbonate ion affected
B1,effect on CA-1-induced retinal vascular permeability,[1]; intravitreal CA-1,blocked
same,effect on PK activation (kallikrein activity),"[2]; varying concentrations, FXII and HK present, fluorogenic kallikrein substrate 0.4 mM, 37° C., 15 minutes",inhibited
